Results taken from patent US10744137B1, “Liquisolid tablet containing combined dose of tadalafil and dapoxetine” (King Abdulaziz University, priority 2020, dated 2020).
≈ marks a conversion by molar mass, not a printed value. Like-named read-outs stand apart in the source and are kept apart here.

What was measured:
[1] = Solubility studies of TDL and DPX in nonvolatile solvents and distilled water; type: physicochemical
Protocol: Solubility studies of TDL and DPX were determined in various nonvolatile solvents separately as described previously with full details in the literature (Al-Subaie et al., 2015)(Aldawsari et al., 2018)(El-Say et al., 2019). The solvents used in this study were Span® 80, Tween® 80, PEG 400, PEG 200, Labrasol®, Kolliphor® EL, glycerin and distilled water were used.

[2] = DPX, low and variable (El-Say et al., 2019); cited from earlier work

Row | solubility ([1]; in distilled water, read-out: Solubility of DPX) [mg/mL] | solubility ([1]; oil or lipid, in Labrasol, read-out: Solubility of DPX) [mg/mL] | solubility ([1]; in distilled water, read-out: Solubility of TDL) [mg/mL] | solubility ([1]; organic solvent or mixture, in PEG 200, read-out: Solubility of TDL) [mg/mL] | Compound | oral bioavailability [2]
1 | 35.6 (≈ 117 mM) | 57.7 (≈ 189 mM) | – | – | CN(C)[C@@H](CCOc1cccc2ccccc12)c1ccccc1 [DPX, dapoxetine] | 15-76%
2 | – | – | 0.049 (≈ 0.126 mM) | 10.1 (≈ 25.9 mM) | CN1CC(=O)N2[C@H](c3ccc4c(c3)OCO4)c3[nH]c4ccccc4c3C[C@@H]2C1=O [TDL, tadalafil] | –
